Data reported in patent publication US9233977B2, “Leucine-rich repeat kinase enzyme activity” (Merck Sharp & Dohme Corp., priority 2010, dated 2016).

These compounds were tested against T1, LRRK2 G2019S mutant kinase (Homo sapiens, UniProt Q5S007, G2019S) (assay: LRRK2 G2019S LanthaScreen TR-FRET kinase assay). Details: LRRK2 G2019S GST-tagged protein, 75 nM Fluorescein-ERM (LRRKtide), 100 μM ATP, 1 hour at room temperature; read-out: IC50 (potency).
T1 construct: GST; purchased Invitrogen PV4882
T1 sequence (Q5S007 whole entry G2019S): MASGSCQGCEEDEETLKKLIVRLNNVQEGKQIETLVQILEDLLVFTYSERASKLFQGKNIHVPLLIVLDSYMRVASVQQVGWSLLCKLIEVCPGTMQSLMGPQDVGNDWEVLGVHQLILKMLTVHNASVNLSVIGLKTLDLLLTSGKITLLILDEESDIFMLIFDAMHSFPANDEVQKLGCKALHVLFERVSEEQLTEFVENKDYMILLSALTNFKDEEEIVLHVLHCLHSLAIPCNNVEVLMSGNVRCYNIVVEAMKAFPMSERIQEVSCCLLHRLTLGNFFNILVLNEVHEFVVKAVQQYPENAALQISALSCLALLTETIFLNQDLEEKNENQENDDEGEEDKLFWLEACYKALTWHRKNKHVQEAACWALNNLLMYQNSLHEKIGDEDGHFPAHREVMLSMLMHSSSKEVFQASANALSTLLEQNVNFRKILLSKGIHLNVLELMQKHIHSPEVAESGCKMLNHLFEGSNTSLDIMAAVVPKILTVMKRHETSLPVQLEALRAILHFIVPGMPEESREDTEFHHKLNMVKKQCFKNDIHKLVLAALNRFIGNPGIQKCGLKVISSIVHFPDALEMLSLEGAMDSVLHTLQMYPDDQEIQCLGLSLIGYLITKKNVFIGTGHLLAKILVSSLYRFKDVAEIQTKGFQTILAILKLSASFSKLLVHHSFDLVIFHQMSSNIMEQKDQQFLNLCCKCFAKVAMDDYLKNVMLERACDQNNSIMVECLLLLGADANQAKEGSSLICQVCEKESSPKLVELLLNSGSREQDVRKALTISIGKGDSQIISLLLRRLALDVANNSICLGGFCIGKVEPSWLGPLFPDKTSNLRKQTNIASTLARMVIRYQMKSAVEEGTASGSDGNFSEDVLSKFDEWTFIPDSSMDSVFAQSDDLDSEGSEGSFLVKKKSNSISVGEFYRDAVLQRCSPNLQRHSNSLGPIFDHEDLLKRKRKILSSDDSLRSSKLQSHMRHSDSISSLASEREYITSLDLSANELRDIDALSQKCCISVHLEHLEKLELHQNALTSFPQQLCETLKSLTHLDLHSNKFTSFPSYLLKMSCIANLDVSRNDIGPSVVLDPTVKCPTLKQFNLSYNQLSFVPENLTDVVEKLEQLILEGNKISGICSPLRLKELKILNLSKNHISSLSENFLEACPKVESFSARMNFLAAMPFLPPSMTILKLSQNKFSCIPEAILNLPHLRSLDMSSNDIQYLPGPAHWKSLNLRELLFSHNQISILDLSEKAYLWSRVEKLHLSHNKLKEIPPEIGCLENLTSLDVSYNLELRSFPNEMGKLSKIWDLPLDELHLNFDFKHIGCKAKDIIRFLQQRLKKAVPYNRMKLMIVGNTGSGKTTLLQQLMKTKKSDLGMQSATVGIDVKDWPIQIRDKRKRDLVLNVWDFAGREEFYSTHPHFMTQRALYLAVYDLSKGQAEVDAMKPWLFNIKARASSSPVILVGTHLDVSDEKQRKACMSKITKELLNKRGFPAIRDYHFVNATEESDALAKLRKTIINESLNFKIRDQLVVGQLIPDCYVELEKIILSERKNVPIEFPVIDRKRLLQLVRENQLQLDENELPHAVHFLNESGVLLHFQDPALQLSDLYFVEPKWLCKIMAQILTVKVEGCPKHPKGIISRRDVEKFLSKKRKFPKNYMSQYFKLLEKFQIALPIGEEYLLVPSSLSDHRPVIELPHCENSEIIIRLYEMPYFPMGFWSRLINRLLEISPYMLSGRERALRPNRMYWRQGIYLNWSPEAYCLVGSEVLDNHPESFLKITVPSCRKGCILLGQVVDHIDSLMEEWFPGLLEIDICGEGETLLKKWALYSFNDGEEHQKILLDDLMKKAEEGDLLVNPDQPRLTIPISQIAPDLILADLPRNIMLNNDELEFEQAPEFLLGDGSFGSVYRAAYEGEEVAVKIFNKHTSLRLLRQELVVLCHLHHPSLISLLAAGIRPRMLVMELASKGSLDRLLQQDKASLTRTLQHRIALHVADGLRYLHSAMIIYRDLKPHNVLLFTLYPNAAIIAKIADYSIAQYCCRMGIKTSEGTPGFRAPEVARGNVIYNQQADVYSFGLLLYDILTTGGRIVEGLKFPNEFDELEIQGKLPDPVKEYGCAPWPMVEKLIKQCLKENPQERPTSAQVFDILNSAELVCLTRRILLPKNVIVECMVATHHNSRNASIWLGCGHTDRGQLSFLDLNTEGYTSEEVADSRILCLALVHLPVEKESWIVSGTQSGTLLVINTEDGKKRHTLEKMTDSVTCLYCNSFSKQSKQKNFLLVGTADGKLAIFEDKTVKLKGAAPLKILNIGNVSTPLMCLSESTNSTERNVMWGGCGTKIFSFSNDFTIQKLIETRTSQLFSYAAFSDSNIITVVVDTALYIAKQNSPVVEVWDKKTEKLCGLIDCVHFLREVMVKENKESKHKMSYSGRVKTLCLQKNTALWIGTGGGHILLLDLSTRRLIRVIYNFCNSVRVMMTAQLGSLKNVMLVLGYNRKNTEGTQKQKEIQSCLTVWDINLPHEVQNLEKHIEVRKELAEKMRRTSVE
Type: biochemical
Method: The final solvent concentration in the assay was 1% DMSO. […] Generation of raw data and workup of data to derive the IC50 (potency) and maximal inhibition at concentrations tested were performed using Merck's Assay Data Analyzer (ADA) software.
The IC50 (potency) was evaluated for the example compounds presented above.
In the case of `CSc1sc(-c2cc[nH]n2)c2c1C(=O)N(CCCCOc1ccccc1)CC2` [Example 68, 3-(methylsulfanyl)-5-(4-phenoxybutyl)-1-(1H-pyrazol-3-yl)-6,7-dihydrothieno[3,4-c]pyridin-4(5)-one], the IC50 is reported as 3200 nM. `CSc1sc(-c2cc[nH]n2)c2c1C(=O)NCC2Cc1ccccc1` (stereo not shown) [Example 25, 7-benzyl-3-(methylsulfanyl)-1-(1H-pyrazol-3-yl)-6,7-dihydrothieno[3,4-c]pyridin-4(5H)-one] showed an IC50 of 150 nM. With `CSc1sc(-c2cc[nH]n2)c2c1C(=O)N(CCC1CCCCC1)CC2` [Example 71, 3-(methylsulfanyl)-5-[(2-cyclohexyl)ethyl]-1-(1H-pyrazol-3-yl)-6,7-dihydrothieno[3,4-c]pyridin-4(5)-one] the IC50 was 7500 nM. `CNc1sc(-c2cc[nH]n2)c2c1C(=O)N[C@H](C)C2` [Example 100, (6R)-3-(methylamino)-6-methyl-1-(1H-pyrazol-3-yl)-6,7-dihydrothieno[3,4-c]pyridin-4(5H)-one] showed an IC50 of 3100 nM. `CSc1sc(-c2cc[nH]n2)c2c1C(=O)N(CCN1CCCCC1)CC2` [Example 80, 3-(methylsulfanyl)-5-[2-(piperidin-1-yl)ethyl]-1-(1H-pyrazol-3-yl)-6,7-dihydrothieno[3,4-c]pyridin-4(5)-one] gave an IC50 of 7800 nM. Compound `CSc1sc(-c2cc[nH]n2)c2c1C(=O)N(CCCC#N)CC2` [Example 59, 4-[3-(methylsulfanyl)-4-oxo-1-(1H-pyrazol-3-yl)-6,7-dihydrothieno[3,4-]pyridin-5(4H)-yl]butanenitrile] has an IC50 of 3700 nM. `CSc1sc(-c2cc[nH]n2)c2c1C(=O)N(CCCCc1ccccc1)CC2` [Example 64, 5-[(4-phenyl)butyl]-3-(methylsulfanyl)-1-(1H-pyrazol-3-yl)-6,7-dihydrothieno[3,4-c]pyridin-4(5)-one] showed an IC50 of 5000 nM. With `CSc1sc(-c2cc[nH]n2)c2c1C(=O)N(CCC=C(F)F)CC2` [Example 69, 5-(4,4-difluorobut-3-en-1-yl)-3-(methylsulfanyl)-1-(1H-pyrazol-3-yl)-6,7-dihydrothieno[3,4-c]pyridin-4(5)-one] the IC50 was 760 nM. Compound `CSc1sc(-c2cc[nH]n2)c2c1C(=O)N[C@H](c1cccc(F)c1)C2` [Example 17, (6S)-3-(methylsulfanyl)-6-(3-fluorophenyl)-1-(1H-pyrazol-3-yl)-6,7-dihydrothieno[3,4-c]pyridin-4(5)-one] has an IC50 of 78 nM. For `O=C1NCCc2c(-c3cc[nH]n3)sc(Sc3ccccc3)c21` [Example 53, 3-phenylsulfanyl-1-(1H-pyrazol-3-yl)-6,7-dihydrothieno[3,4-c]pyridin-4(5)-one], the IC50 was 1500 nM. In the case of `CSc1sc(-c2cc[nH]n2)c2c1C(=O)N(Cc1ccnc3ccccc13)CC2` [Example 56, 3-(methylsulfanyl)-1-(1H-pyrazol-3-yl)-5-(quinolin-4-ylmethyl)-6,7-dihydrothieno[3,4-c]pyridin-4(5)-one], the IC50 is reported as 3700 nM. With `O=C1NC2(CCC2)Cc2c(-c3cc[nH]n3)sc(SC3CCCC3)c21` [Example 32, 3′-(cyclopentylsulfanyl)-4′-oxo-1′-(1H-pyrazol-3-yl)-7′H-spiro[cyclobutane-1,6′-thieno[3,4-1]pyridine]-4′(5′H)-one] the IC50 was 140 nM. Work on `CSc1sc(-c2cc[nH]n2)c2c1C(=O)NCC2` [Example 1, 3-(Methylsulfanyl)-1-(1H-pyrazol-3-yl)-6,7-dihydrothieno[3,4-c]pyridin-4(5H)-one] yielded an IC50 of 460 nM. `O=C1NC2(CCC2)Cc2c(-c3cc[nH]n3)sc(NC3CCCC3)c21` [Example 88, 3′-(cyclopentylamino)-4′-oxo-1′-(1H-pyrazol-3-yl)-7′H-spiro[cyclobutane-1,6′-thieno[3,4-1]pyridine]-4′(5′H)-one] gave an IC50 of 120 nM. Compound `O=C1NC(Cc2ccccc2)Cc2c(-c3cc[nH]n3)sc(SC3CCCC3)c21` (stereo not shown) [Example 33, 6-benzyl-3-(cyclopentylsulfanyl)-1-(1H-pyrazol-3-yl)-6,7-dihydrothieno[3,4-c]pyridin-4(5)-one] has an IC50 of 530 nM. In the case of `CSc1sc(-c2cc[nH]n2)c2c1C(=O)NC[C@H]2C` [Example 22, (7S)-7-methyl-3-(methylsulfanyl)-1-(1H-pyrazol-3-yl)-6,7-dihydrothieno[3,4-c]pyridin-4(5)-one], the IC50 is reported as 400 nM. Work on `C[C@@H]1Cc2c(-c3cc[nH]n3)sc(SC3(C(=O)O)CCCC3)c2C(=O)N1` [Example 50, 1-{[(6R)-6-methyl-4-oxo-1-(1H-pyrazol-3-yl)-4,5,6,7-tetrahydrothieno[3,4-c]pyridin-3-yl]sulfanyl}cyclopentanecarboxylic acid] yielded an IC50 of 3400 nM. `CNc1sc(-c2cc[nH]n2)c2c1C(=O)NCC2` [Example 91, 3-(methylamino)-(1H-pyrazol-3-yl)-6,7-dihydrothieno[3,4-c]pyridin-4(5H)-one] gave an IC50 of 1400 nM. `CSc1sc(-c2cc[nH]n2)c2c1C(=O)NC(C1CCC1)C2` (stereo not shown) [Example 14, 6-cyclobutyl-3-(methylsulfanyl)-1-(1H-pyrazol-3-yl)-6,7-dihydrothieno[3,4-c]pyridin-4(5)-one] gave an IC50 of 190 nM. `CSc1sc(-c2cc[nH]n2)c2c1C(=O)NC1(CC1)C2` [Example 7, 3′-(methylsulfanyl)-4′-oxo-1′-(1H-pyrazol-3-yl)-7′H-spiro[cyclopropanc-1,6′-thieno[3,4-1]pyridine]-4′(5′H)-one] gave an IC50 of 350 nM. In the case of `CSc1sc(-c2cc[nH]n2)c2c1C(=O)NC(C1CC1)C2` (stereo not shown) [Example 13, 6-cyclopropyl-3-(methylsulfanyl)-1-(1H-pyrazol-3-yl)-6,7-dihydrothieno[3,4-c]pyridin-4(5)-one], the IC50 is reported as 450 nM. `CSc1sc(-c2cc[nH]n2)c2c1C(=O)N(CCc1ccccc1)CC2` [Example 55, 3-(methylsulfanyl)-5-(2-phenethyl)-1-(1H-pyrazol-3-yl)-6,7-dihydrothieno[3,4-c]pyridin-4(5)-one] was tested, and the IC50 was 1200 nM. `CSc1sc(-c2cc[nH]n2)c2c1C(=O)NC(C(=O)OC(C)(C)C)C2` (stereo not shown) [Example 20, tert-butyl-3-(methylsulfanyl)-4-oxo-1-(1H-pyrazol-3-yl)-4,5,6,7-tetrahydrothieno[3,4-c]pyridine-carboxylate] gave an IC50 of 7900 nM. `CSc1sc(-c2cc[nH]n2)c2c1C(=O)NC(C(F)(F)F)C2` (stereo not shown) [Example 9, 6-trifiuoromethyl-3-(methylsulfanyl)-1-(1H-pyrazol-3-yl)-6,7-dihydrothieno[3,4-c]pyridin-4(5)-one] gave an IC50 of 190 nM. With `O=C1NCCc2c(-c3cc[nH]n3)sc(SCCO)c21` [Example 47] the IC50 was 580 nM. In the case of `CNc1sc(-c2cc[nH]n2)c2c1C(=O)NC(CC(C)C)C2` (stereo not shown) [Example 95, 3-(methylamino)-6-(2-methyl)propyl-1-(1H-pyrazol-3-yl)-6,7-dihydrothieno[3,4-c]pyridin-4(5H)-one], the IC50 is reported as 470 nM. For `NCCSc1sc(-c2cc[nH]n2)c2c1C(=O)NCC2` [Example 40], the IC50 was 4700 nM. Compound `CSc1sc(-c2cc[nH]n2)c2c1C(=O)N(CCCc1ccccc1)CC2` [Example 79] has an IC50 of 3500 nM. `CSc1sc(-c2cc[nH]n2)c2c1C(=O)N(CCCCCc1ccccc1)CC2` [Example 74, 5-[(5-phenyl)pentyl]-3-(methylsulfanyl)-1-(1H-pyrazol-3-yl)-6,7-dihydrothieno[3,4-c]pyridin-4(5)-one] gave an IC50 of 7500 nM. For `CSc1sc(-c2cc[nH]n2)c2c1C(=O)N(Cc1cccnc1Cl)CC2` [Example 58, 5-[(2-chloropyridin-3-yl)methyl]-3-(methylsulfanyl)-1-(1H-pyrazol-3-yl)-6,7-dihydrothieno[3,4-c]pyridin-4(5)-one], the IC50 was 3000 nM. Work on `CC1CNC(=O)c2c(NC3CCCC3)sc(-c3cc[nH]n3)c21` (stereo not shown) [Example 86, 3-(cyclopentylamino)-7-methyl-1-(1H-pyrazol-3-yl)-6,7-dihydrothieno[3,4-e]pyridin-4(5H)-one] yielded an IC50 of 120 nM. Compound `CSc1sc(-c2cc[nH]n2)c2c1C(=O)NC(CC(C)C)C2` (stereo not shown) [Example 12, 6-(2-methylpropyl)-3-(methylsulfanyl)-1-(1H-pyrazol-3-yl)-6,7-dihydrothieno[3,4-c]pyridin-4(5)-one] has an IC50 of 300 nM. Work on `CSc1sc(-c2cc[nH]n2)c2c1C(=O)N(C(=O)OC(C)(C)C)C(C)C2` (stereo not shown) [Example 4] yielded an IC50 of 4800 nM. Compound `CSc1sc(-c2cc[nH]n2)c2c1C(=O)N(Cc1ccccc1)CC2` [Example 77, 5-benzyl-3-(methylsulfanyl)-1-(1H-pyrazol-3-yl)-6,7-dihydrothieno[3,4-c]pyridin-4(5)-one] has an IC50 of 1300 nM. Compound `CNc1sc(-c2cc[nH]n2)c2c1C(=O)NCC2C` (stereo not shown) [Example 96, 3-(methylamino)-7-methyl-1-(1H-pyrazol-3-yl)-6,7-dihydrothieno[3,4-c]pyridin-4(5H)-one] has an IC50 of 370 nM. `CCC(C)CSc1sc(-c2cc[nH]n2)c2c1C(=O)N[C@H](C)C2` (stereo partly shown) [Example 49] showed an IC50 of 120 nM. `CSc1sc(-c2cc[nH]n2)c2c1C(=O)N(CC1CCCNC1)CC2` (stereo not shown) [Example 65, 3-(methylsulfanyl)-1-(1H-pyrazol-3-yl)-5-(piperidin-3-ylmethyl)-6,7-dihydrothieno[3,4-c]pyridin-4(5H)-one] was tested, and the IC50 was 3400 nM. `CCCSc1sc(-c2cc[nH]n2)c2c1C(=O)NCC2C` (stereo in doubt) [Example 28, (7S)-7-methyl-3-(propylsulfanyl)-1-(1H-pyrazol-3-yl)-6,7-dihydrothieno[3,4-c]pyridin-4(5)-one] was tested, and the IC50 was 42 nM. `CCC(C)CSc1sc(-c2cc[nH]n2)c2c1C(=O)N[C@@H](C)C2` (stereo partly shown) [Example 48] was tested, and the IC50 was 55 nM. In the case of `O=C1NCCc2c(-c3cc[nH]n3)sc(SC3CCCCC3)c21` [Example 45, 3-(cyclohexylsulfanyl)-1-(1H-pyrazol-3-yl)-6,7-dihydrothieno[3,4-c]pyridin-4(5)-one], the IC50 is reported as 380 nM.
